B1: Melan-A: melanocyte/melanoma-differentiation antigen (protein, UniProt Q16655 1-118, looked up)
Melanoma antigen recognized …: MPREDAHFIYGYPKKGHGHSYTTAEEAAGIGILTVILGVLLLIGCWYCRRRNGYRALMDKSLHVGTQCALTRRCPQEGFDHRDSKVSLQEKNCEPVVPNAPPAYEKLSAEQSPPPYSP

What was measured:
[1] = system: M1p58-66-specific CD8^+ αβ T cell clone FLUMA55; type: cell-based, human
Vγ9Vδ2^+ T cells = test: Expression of cell surface APC markers during γδ T cell activation with inhibitors; settings: FIG. 19 B
naïve CD4^+ αβ T cells = type: cell-based, human
[2] = system: Melp26-35-specific, HLA-A2-restricted CD8^+ αβ T cell clone LAU 337; type: cell-based, human

Molecule | inhibition of M1 cross-presentation in γδ T-APCs and DCs [1] | responses to M1p58-66 pulsed APCs [1] | expression of cell surface APC markers (MHC II, CD71, CD80, CD86) after TCR-triggering (Vγ9Vδ2^+ T cells) | Vβ2^+ (%) (naïve CD4^+ αβ T cells) | IFN-γ production in Melp26-35-specific responder cell clones [2]
C[C@H]1CCC/C=C/[C@@H]2C[C@H](O)C[C@H]2[C@H](O)/C=C/C(=O)O1 [brefeldin A] | fully inhibited | only partially affected | inhibited |  | 
CCN(CC)CCCC(C)Nc1ccnc2cc(Cl)ccc12 (stereo not drawn) [chloroquin] | ≤ 50% |  |  |  | 
CC(=O)N[C@@H](CSC(=O)[C@]1([C@@H](O)C(C)C)NC(=O)[C@H](C)[C@@H]1O)C(=O)O [lactacystin] | fully inhibited | only partially affected | inhibited |  | 
phytohemagglutinin [PHA] |  |  |  | 9 | 
B1 |  |  |  |  | failed to induce IFN-γ production

— patent publication US8338173B2, “Preparation of antigen-presenting human γδ T cells and use in immunotherapy” (University College Cardiff Consultants Limited, priority 2005, dated 2012)
